Laboratory results from PMC5301252, “A new approach to quantification of mAb aggregates using peptide affinity probes” (Scientific Reports, 2017).

Assays:
[1] = tested on: NISTmAb aggregates generated by agitation; assay: Phage ELISA, binding to aggregated NISTmAb versus control NISTmAb; details: phage clone displaying the peptide, 2 hours, room temperature
Procedure: (§1) In the second step, a sample of the cross-linked NISTmAb was used as bait to screen a Ph.D.−12 phage display peptide library. The bait represents a mixture of monomer and cross-linked aggregated NISTmAb; this was also the only occasion when cross-linked sample was used. Phage display panning was performed in a subtractive manner. The library was initially depleted with control non-aggregated NISTmAb using three iterative cycles. The unbound phage was then screened on cross-linked NISTmAb aggregates, again using three iterative cycles of phage binding, elution, and amplification. After these rounds of panning, the single phage plaques were randomly picked up and amplified, and phage DNA was submitted for sequencing. In parallel, the ability to bind NISTmAb aggregates was evaluated using phage enzyme-linked immunosorbent assay (ELISA) for all selected phage clones. […] Clones #1 and #4 show respectively 9-fold and 7-fold better binding toward aggregated NISTmAb, compared to their binding toward control non-aggregated NISTmAb. […]
(§2) To assess the binding ability of the selected phages toward NISTmAb aggregates, 1 × 10^10 pfu of P02-C06 phage was incubated with 50 μg of NISTmAb aggregates at room temperature for 2 hours. […] Tetramethybezidine substrate reagent (eBioscience, San Diego, CA) was subsequently added and absorbance was read at 450 nm.

[2] = tested on: control non-aggregated NISTmAb; assay: Phage ELISA, binding to control NISTmAb; details: phage clone displaying the peptide; 2 hours, room temperature; absorbance 450 nm; three analytical replicates
Procedure: as §1, §2

GNNPLHVHHDKRGGG [P02-C04]
binding preference ([1]; aggregated vs control NISTmAb, absorbance 450 nm): preferential binding to NISTmAb aggregates
fold better binding toward aggregated NISTmAb compared to control non-aggregated NISTmAb ([1]; 1 × 10^10 pfu, HRP anti-M13, absorbance 450 nm, three analytical replicates): 7 -fold
affinity toward non-aggregated NISTmAb, compared to other clones [2]: lowest
